Results reported in ChEMBL document CHEMBL1201862, “PubChem BioAssay data set” (2004).
Active and inactive are the calls of the source.

Assays:
[1] = alpha-synuclein stem-loop luciferase translation blockers – H4 neuroglioma cells, luminescence, confirmation (AID 1988); assay type: functional, cell-based
[2] = Luminescence Cell-Based Dose Response HTS to Identify Inhibitors of 5'UTR Stem-Loop Driven Prion Protein mRNA Translation in H4 Neuroglioblastoma Cells. [Related pubchem assays: 1827 (Project Summary), 1813 (Primary HTS)]; assay type: functional
[3] = luciferase reporter signal suppression in cells – H4 neuroglioma cells, luminescence, dose response (AID 1990); assay type: functional, cell-based
[4] = molecular target: Cytochrome P450 2C19 (Homo sapiens, UniProt P33261); assay: Cytochrome panel assay with activity outcomes. Panel member name: p450-cyp2c19 Compounds with AC50 equal or less than 10 uM are considered active; assay type: functional
Cytochrome P450 2C19, sequence (P33261 whole entry): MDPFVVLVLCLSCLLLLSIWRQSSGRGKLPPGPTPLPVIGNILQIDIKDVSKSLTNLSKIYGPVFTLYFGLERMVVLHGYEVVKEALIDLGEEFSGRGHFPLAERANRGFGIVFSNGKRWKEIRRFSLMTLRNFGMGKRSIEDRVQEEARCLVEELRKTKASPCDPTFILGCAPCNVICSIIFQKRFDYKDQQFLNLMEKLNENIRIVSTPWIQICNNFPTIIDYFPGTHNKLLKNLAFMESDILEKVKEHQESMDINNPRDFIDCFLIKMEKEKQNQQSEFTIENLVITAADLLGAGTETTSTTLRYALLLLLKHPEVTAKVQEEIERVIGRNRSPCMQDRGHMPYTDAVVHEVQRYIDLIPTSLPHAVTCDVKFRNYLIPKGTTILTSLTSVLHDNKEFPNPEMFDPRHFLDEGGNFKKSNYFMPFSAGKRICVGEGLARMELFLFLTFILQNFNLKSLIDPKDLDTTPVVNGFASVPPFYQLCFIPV

[5] = Luminescence Cell-Based Dose Response HTS to Identify Activators of Luciferase Translation or Activity in H4 […] Cells. [Related pubchem assays: 1829 (Project Summary), 1814 (Primary HTS)]; assay type: functional
[6] = system: H4; assay: Luminescence Cell-Based Dose Response HTS to Identify Activators of 5'UTR Stem-Loop Driven Prion Protein mRNA Translation in H4 Neuroglioblastoma Cells. [Related pubchem assays: 1829 (Project Summary), 1814 (Primary HTS)]; assay type: functional; details: Homo sapiens
[7] = Luminescence Cell-Based Dose Confirmation HTS to Identify Activators of 5'UTR Stem-Loop Driven Alpha-Synuclein mRNA Translation in H4 Neuroglioblastoma Cells. [Related pubchem assays: 1829 (Project Summary), 1814 (Primary HTS)]; assay type: functional
[8] = NIH3T3 cell viability loss – ATP luminescence, mouse fibroblasts, counter-screen, dose response (AID 2010); assay type: functional, cell-based;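 also: cells exposed to compound for about 90 hours before reading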
[9] = Trypanosoma cruzi growth suppression in host cells – NIH3T3 host cells, beta-gal luminescence, confirmation (AID 2044); assay type: functional, cell-based;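 also: intracellular parasites grown in NIH/3T3 mouse fibroblasts as host cells; luminescent beta-galactosidase reporter signal from transgenic T. cruzi replicating inside host cells; inhibitors lower the luminescence signal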
[10] = molecular target: T1, Streptokinase A (Streptococcus pyogenes serotype M1, UniProt P10520); assay: viability-normalized secreted streptokinase activity reduction – plasminogen activation absorbance, OD405, dose response (AID 1914); assay type: functional, Streptococcus pyogenes M1 GAS;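 also: secreted streptokinase activity via plasminogen activation per viability signal from cell pellet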
T1 sequence (P10520 whole entry): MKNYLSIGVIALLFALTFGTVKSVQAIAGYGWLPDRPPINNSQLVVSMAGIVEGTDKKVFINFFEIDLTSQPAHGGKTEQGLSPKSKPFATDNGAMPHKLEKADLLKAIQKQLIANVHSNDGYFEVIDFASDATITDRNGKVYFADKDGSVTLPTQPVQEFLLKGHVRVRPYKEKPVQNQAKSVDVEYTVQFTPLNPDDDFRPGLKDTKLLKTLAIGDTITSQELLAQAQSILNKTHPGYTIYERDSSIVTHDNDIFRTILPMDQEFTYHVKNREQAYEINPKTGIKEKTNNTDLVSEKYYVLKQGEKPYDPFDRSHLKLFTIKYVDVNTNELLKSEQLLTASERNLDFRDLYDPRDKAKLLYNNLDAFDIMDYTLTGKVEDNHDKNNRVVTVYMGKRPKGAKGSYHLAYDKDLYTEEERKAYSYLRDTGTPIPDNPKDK

[11] = system: Streptococcus sp. 'group A'; assay: Streptococcus pyogenes SK(-)GAS viability under kanamycin – luminescence, BacTiterGlo, confirmation, counter-screen for streptokinase expression inhibitor project, dose response (AID 1900); assay type: functional, organism-based
[12] = molecular target: Cytochrome P450 2C9 (Homo sapiens, UniProt P11712)
Cytochrome P450 2C9, sequence (P11712 whole entry): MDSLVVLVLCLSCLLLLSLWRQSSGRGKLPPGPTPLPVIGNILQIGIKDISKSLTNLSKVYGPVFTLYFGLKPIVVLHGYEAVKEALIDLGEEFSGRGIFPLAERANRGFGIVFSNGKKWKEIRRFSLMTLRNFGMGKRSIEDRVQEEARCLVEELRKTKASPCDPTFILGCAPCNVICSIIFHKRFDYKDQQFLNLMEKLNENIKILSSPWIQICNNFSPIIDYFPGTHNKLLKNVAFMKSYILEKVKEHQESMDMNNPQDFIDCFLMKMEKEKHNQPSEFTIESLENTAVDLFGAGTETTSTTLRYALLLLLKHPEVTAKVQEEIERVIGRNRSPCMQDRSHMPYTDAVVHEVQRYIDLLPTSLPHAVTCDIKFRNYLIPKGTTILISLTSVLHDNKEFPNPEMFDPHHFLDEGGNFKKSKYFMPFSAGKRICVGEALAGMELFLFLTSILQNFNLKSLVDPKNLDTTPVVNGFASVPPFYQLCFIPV

[13] = system: Streptococcus; assay: GAS UMAA2166 growth inhibition – luminescence, BacTiterGlo, counter-screen for streptokinase expression inhibitor project, dose response (AID 1915); assay type: functional, organism-based;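 also: potency for reduction of bacterial viability or growth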
[14] = system: INS1; assay: INS-1E survival protection against cytokine death – cell-based, luminescence, retest, dose response (AID 449756); assay type: functional; details: Rattus norvegicus;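 also: cell death triggered by IL-1 beta plus TNF-alpha plus IFN-gamma mixture; protective hits raise ATP signal compared with cytokine alone wells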
[15] = molecular target: T2, Cytochrome P450 1A2 (Homo sapiens, UniProt P05177);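 also: PubChem cytochrome P450 panel assay, CYP1A2 panel member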
T2 sequence (P05177 whole entry): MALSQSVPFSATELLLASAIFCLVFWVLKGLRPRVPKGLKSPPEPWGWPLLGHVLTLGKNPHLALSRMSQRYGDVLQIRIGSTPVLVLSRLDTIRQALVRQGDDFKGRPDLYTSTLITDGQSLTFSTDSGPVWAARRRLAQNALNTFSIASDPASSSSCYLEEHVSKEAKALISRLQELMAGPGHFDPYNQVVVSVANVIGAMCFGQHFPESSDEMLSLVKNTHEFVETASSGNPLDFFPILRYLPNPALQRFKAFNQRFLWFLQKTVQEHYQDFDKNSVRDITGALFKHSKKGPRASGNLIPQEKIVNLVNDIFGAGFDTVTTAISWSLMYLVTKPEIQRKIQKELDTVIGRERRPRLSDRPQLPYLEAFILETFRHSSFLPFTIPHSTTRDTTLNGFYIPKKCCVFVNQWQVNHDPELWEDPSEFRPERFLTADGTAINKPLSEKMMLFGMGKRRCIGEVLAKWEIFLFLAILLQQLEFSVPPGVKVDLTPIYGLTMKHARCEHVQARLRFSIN

## Clc1ccccc1Cn1nnc2c(N3CCOCC3)nc(C3CC3)nc21
[1]
  EC50: 27 µM (active)
[2]
  EC50: > 120 µM (not active)
[3]
  EC50: 23.8 µM (active)

## COc1ccc(NC(=O)C(c2ccc(OC)cc2)N(C)C(=O)CNC(C)=O)cc1 (stereo unspecified)
[4]
  AC50: inconclusive

## O=C(Nc1cccnc1)c1ccc(CN2CCc3ccccc3C2)cc1
[5]
  EC50: 28.6 µM (active)
[6]
  EC50: > 120 µM (not active)
[7]
  EC50: 50.3 µM (active)

## Cc1nn(-c2ccccc2)c2sc(C(=O)NC3CC3)cc12
[5]
  EC50: 48.3 µM (active)
[6]
  EC50: 27.9 µM (active)
[7]
  EC50: > 120 µM (not active)

## COc1ccc(-c2nc3c4c(ncn3n2)-c2ccccc2CC42CCCC2)cc1
[1]
  EC50: 14.7 µM (active)
[2]
  EC50: > 120 µM (not active)
[3]
  EC50: 23 µM (active)

## COC(=O)C1=CN(C2CCCCC2)C=C(C(=O)OC)C1c1ccc2c(c1)OCO2
[1]
  EC50: > 120 µM (not active)
[8]
  EC50: > 60 µM (inconclusive)
[2]
  EC50: 57.5 µM (active)
[3]
  EC50: 15.8 µM (active)
[9]
  EC50: 1.56 µM (active)

## COc1cc(/C=N/N=c2\[nH]c3ccccc3s2)cc([N+](=O)[O-])c1O
[10]
  EC50: > 150 µM (not active)

## O=C(CSc1ccc(Cl)cc1)Nc1ccc(N2CCN(c3ccccc3)CC2)c(F)c1
[4]; read-out: AC50
  AC50: 3.55 µM (inconclusive)

## Clc1ccc(CSc2nccn2Cc2ccccc2)cc1
[11]
  EC50: 33 µM (active)
[12]
  AC50: 22.4 µM (inconclusive)
[10]
  EC50: 24.2 µM (inconclusive)
[13]
  EC50: > 150 µM (not active)

## O=C(Nc1nnc(C2=COCCO2)o1)c1ccc([N+](=O)[O-])s1
[11]
  EC50: 18.1 µM (active)
[10]
  EC50: > 150 µM (not active)
[13]
  EC50: > 150 µM (not active)

## COC(=O)c1ccc(CSc2nncn2C)cc1
[5]
  EC50: 54.3 µM (active)
[6]
  EC50: 11.3 µM (active)
[7]
  EC50: 9.45 µM (active)

## Cc1cc[n+](C(C)C(=O)c2ccc(-c3ccccc3)cc2)cc1 (stereo unspecified)
[8]
  EC50: > 60 µM (not active)
[14]
  AC50: 4.05 µM (active)
[9]
  EC50: 3.33 µM (active)

## O=C(O)c1cc(O)c2c(Cl)cc(Cl)cc2n1
[15]
  AC50: 39.8 µM (inconclusive)
[4]
  AC50: inconclusive

## CCOC(=O)/C(=N\Nc1ccc(Cl)cc1)c1csc(Nc2ccccc2)n1
[8]
  EC50: > 60 µM (not active)
[11]
  EC50: 6.05 µM (active)
[10]
  EC50: 20.9 µM (active)
[13]
  EC50: 37 µM (active)
[9]
  EC50: 1.48 µM (active)

## COc1ccc(-c2cc3nc[nH]c(=O)c3s2)cc1
[10]
  EC50: > 150 µM (not active)

## C#CCOCCOCCOCCNc1nc(N2CCN(C(=O)CCCCCCCCCCNC(=O)[C@H](CCCCN)n3cc(C[C@@H](C)CC)nn3)CC2)nc(N2CCN(C(=O)CCCCCCCCCCNC(=O)[C@@H]([C@H](C)O)n3cc(C)nn3)CC2)n1
[14]
  AC50: 4.74 µM (active)

## CCOc1ccc(S(=O)(=O)N2CCCCC2)c2ccccc12
[1]
  EC50: > 120 µM (not active)
[2]
  EC50: > 120 µM (not active)
[3]
  EC50: 20.9 µM (active)

## Cc1cccc(C(=O)NNC(=O)C(=O)NC(C)(C)C)c1
[4]; read-out: AC50
  AC50: 11.2 µM (inconclusive)
